The source of these data is patent US5200415A, “Pyrazolo[1,5-a]pyridine-3-carboxylic acid derivatives and their pharmaceutical use” (Asahi Kasei Kogyo Kabushiki Kaisha, priority 1990, dated 1993).

One assay has as its target T1, 5-HT3 receptor (Rattus norvegicus, UniProt P35563).
T1 sequence (P35563 24-483): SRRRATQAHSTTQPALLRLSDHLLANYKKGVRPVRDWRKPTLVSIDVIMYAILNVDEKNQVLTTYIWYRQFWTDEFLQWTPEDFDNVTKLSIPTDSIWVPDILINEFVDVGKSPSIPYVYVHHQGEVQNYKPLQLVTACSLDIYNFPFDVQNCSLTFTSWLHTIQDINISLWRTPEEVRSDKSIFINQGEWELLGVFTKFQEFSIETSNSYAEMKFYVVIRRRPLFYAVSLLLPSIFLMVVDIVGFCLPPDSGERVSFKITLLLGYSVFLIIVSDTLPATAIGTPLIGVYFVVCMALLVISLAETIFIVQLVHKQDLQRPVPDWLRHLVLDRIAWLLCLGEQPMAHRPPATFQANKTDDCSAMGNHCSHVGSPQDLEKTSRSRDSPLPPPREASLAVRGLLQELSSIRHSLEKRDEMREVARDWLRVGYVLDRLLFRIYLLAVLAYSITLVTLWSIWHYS
The experiment in a line: 5-HT3 receptor binding experiment (3H-quipazine binding assay, rat cerebral cortical membrane fraction). The following applies: for inhibition at 0.01 µM / inhibition at 0.001 µM: read-out: Binding inhibitory rate.

For a further assay, the system named is female beagles. The experiment in a line: Antiemetic effects against cisplatin-induced vomiting. The following applies: for Number of vomits / Latency of the first vomit: test compound 0.1 mg/kg i.v. 75 minutes after cisplatin 3 mg/kg i.v.; for Number of vomits: 4 hours observation; for Vomiting after cisplatin (result in words): two beagles, test compound 0.1 mg/kg i.v., cisplatin 3 mg/kg i.v. The format is in vivo, female beagles (dog). The source says:
Using four 9-13 month-old female beagles having a body weight of 7.5-9.6 Kg (furnished by Toyo Research Animal Inc.), the antiemetic effects of certain compounds of the present invention were investigated.
As test compounds, the compounds obtained in Examples 8 and 9, respectively, were individually weighed and dissolved in 0.01N hydrochloric acid. The resultant solutions were neutralized to about pH 7 with 0.01N NaOH to provide aqueous solutions for administration. Cisplatin ("Briplatin Injection", product of Bristol-Myers Co.) was used as an emetic.
To see the emetic effects of cisplatin to each animal, vomiting after the administration of cisplatin was first observed (control group). Next, seven weeks later, each group consisting of two beagles was intravenously administered with 0.1 mg/kg (0.2 ml/kg) of the compound of Example 8 or 9 upon an elapsed time of 75 minutes after the administration of cisplatin, and the group administered with the compound of Example 8 and the group administered with the compound of Example 9 were both observed for vomit. Cisplatin was intravenously administered at the dosage of 3 mg/kg (in the volume of 6 ml/kg) and the administration rate of 10 ml/min.
The laboratory animals were fasted for about 24 hours prior to administration of cisplatin and, one hour after the administration of cisplatin, were fed. Vomit was determined depending on whether vomitus was discharged out of the mouth. With respect to the number of vomits and their latency, observation was continued for 4 hours after the administration of cisplatin.
Based on the observation, the latency of the first vomit of and the number of vomits of each laboratory animal after the administration of cisplatin are shown in Table 3-A and Table 3-B.

pIC50: −log10 of the molar value. Where two headings read alike, the source gives them in different places.

Consider `O=C(O)c1cnn2ccccc12` [Control* 1, Pyrazolo[1,5a]pyridine3-carboxylic acid, reference compound], for which the pIC50 at 5-HT3 receptor was under 5.00.

For the compound `Cc1nn2ccccc2c1C(=O)O` [Control* 2, 2Methylpyrazolo[1,5a]pyridine3-carboxylic acid, reference compound], the pIC50 at 5-HT3 receptor is under 5.00.

On to `Cc1cccn2ncc(C(=O)O)c12` [Control* 3, 4Methylpyrazolo[1,5a]pyridine3-carboxylic acid, reference compound], for which, at 5-HT3 receptor, the pIC50 is under 5.00.

`Cc1ccn2ncc(C(=O)O)c2c1` [Control* 4, 5Methylpyrazolo[1,5a]pyridine3-carboxylic acid, reference compound] showed a pIC50 on 5-HT3 receptor of under 5.00.

Compound `Cc1ccc2c(C(=O)O)cnn2c1` [Control* 5, 6Methylpyrazolo[1,5a]pyridine3-carboxylic acid, reference compound] gave a pIC50 at 5-HT3 receptor of under 5.00.

With `Cc1cccc2c(C(=O)O)cnn12` [Control* 6, 7Methylpyrazolo[1,5a]pyridine3-carboxylic acid, reference compound], the pIC50 at 5-HT3 receptor was under 5.00.

Consider `Cc1nn2c(C)cccc2c1C(=O)O` [Control* 7, 2,7Dimethylpyrazolo[1,5a]pyridine3-carboxylic acid, reference compound], for which, at 5-HT3 receptor, the pIC50 is under 5.00.

Take `O=C(NC1CN2CCC1CC2)c1cnn2ccccc12` (stereo not drawn) [Example 1, N-(1-azabicyclo[2.2.2]oct-3-yl)-3-pyrazolo[1,5-a]pyridinecarboxamide]: at 5-HT3 receptor, the pIC50 was 7.39 and the inhibition at 0.01 µM is 50%.

For the compound `Cc1ccn2ncc(C(=O)NC3CN4CCC3CC4)c2c1` (stereo not drawn) [Example 2, 5-methyl-N-(1-azabicyclo[2.2.2]oct-3-yl)-3-pyrazolo[1,5-a]pyridinecarboxamide], on 5-HT3 receptor, the pIC50 was 7.36 and the inhibition at 0.01 µM is 31%.

As for `Cc1cccc2c(C(=O)NC3CN4CCC3CC4)cnn12` (stereo not drawn) [Example 4, 7-methyl-N-(1-azabicyclo[2.2.2]oct-3-yl)-3-pyrazolo[1,5-a]pyridinecarboxamide], on 5-HT3 receptor, the pIC50 was 8.14 and the inhibition at 0.01 µM came out at 82%.

`Cc1nn2ccccc2c1C(=O)NC1CN2CCC1CC2` (stereo not drawn) [Example 5, 2-methyl-N-(1-azabicyclo[2.2.2]oct-3-yl)-3-pyrazolo[1,5-a]pyridinecarboxamide]: at 5-HT3 receptor, the negative logarithm of the IC50 (pIC50) is 7.72 and the inhibition at 0.01 µM was 50%.

Consider `CN1[C@@H]2CC[C@H]1C[C@@H](OC(=O)c1cnn3ccccc13)C2` [Example 6, endo-8-methyl-8-azabicyclo[3.2.1]-oct-3-yl pyrazolo[1,5-a]pyridine-3-carboxylate], for which, at 5-HT3 receptor, the pIC50 is 7.78, the inhibition at 0.001 µM came out at 9% and the inhibition at 0.01 µM turned out to be 37%.

As for `Cc1cccc2c(C(=O)O[C@H]3C[C@H]4CC[C@@H](C3)N4C)cnn12` [Example 7, endo-8-methyl-8-azabicyclo[3.2.1]-oct-3-yl 7-methylpyrazolo[1,5-a]pyridine-3-carboxylate], at 5-HT3 receptor, the pIC50 was 9.00, the inhibition at 0.001 µM was determined as 43% and the inhibition at 0.01 µM amounted to 77%.

On 5-HT3 receptor, `Cc1cccc2c(C(=O)N[C@H]3C[C@H]4CC[C@@H](C3)N4C)cnn12` [Example 8, endo-8-methyl-8-azabicyclo[3.2.1]-oct-3-yl 7-methyl-pyrazolo[1,5-a]pyridine-3-carboxamide] had a pIC50 of 7.72. The Number of vomits with female beagles (Dog No. 1) and with female beagles (Dog No. 2) was 0 times throughout. Besides, in the assay with female beagles, the “Vomiting after cisplatin (result in words)” value is recorded as “No vomit”.

For `Cc1cccc2c(C(=O)N[C@H]3C[C@H]4CCC[C@@H](C3)N4C)cnn12` [Example 9, endo-9-methyl-9-azabicyclo[3.3.1]-non-3-yl 7-methyl-pyrazolo[1,5-a]pyridine-3-carboxamide], the pIC50 on 5-HT3 receptor (read-out: IC50 value) is 7.27. Also, in the assay with female beagles (Dog No. 3), the “Latency of the first vomit” value is 132 min and the Number of vomits came to 12 times. In addition, in the assay on female beagles (Dog No. 4), the “Latency of the first vomit” value amounted to 173 min. Also, the “Vomiting after cisplatin (result in words)” value in the assay on female beagles was “number of vomits therefore decreased in one case”.

With `Cc1cccc2c(C(=O)N[C@@H]3CN4CCC3CC4)cnn12` [Example 10, (S)-(-)-N-(1-azabicyclo[2.2.2]oct-3-yl)-7-methylpyrazolo[1,5-a]pyridine-3-carboxamide], at 5-HT3 receptor, the negative-log IC50 (pIC50) is 9.55.

In turn, `Cc1cccc2c(C(=O)N[C@H]3CN4CCC3CC4)cnn12` [Example 11, (R)-(+)-N-(1-azabicyclo[2.2.2]oct-3-yl)-7-methylpyrazolo[1,5-a]pyridine-3-carboxamide] gave a pIC50 on 5-HT3 receptor of 7.35.

As to `Cc1nn2ccccc2c1C(=O)O[C@H]1C[C@H]2CC[C@@H](C1)N2C` [Example 15, endo-8-methyl-8-azabicyclo[3.2.1]-oct-3-yl 2-methyl-pyrazolo[1,5-a]pyridine-3-carboxylate], the pIC50 at 5-HT3 receptor is 8.57.

Consider `Cc1cccn2ncc(C(=O)O[C@H]3C[C@H]4CC[C@@H](C3)N4C)c12` [Example 16, endo-8-methyl-8-azabicyclo[3.2.1]-oct-3-yl 4-methyl-pyrazolo[1,5-a]pyridine-3-carboxylate], for which the negative logarithm of the IC50 (pIC50) on 5-HT3 receptor is 8.46.

In turn, `Cc1ccn2ncc(C(=O)O[C@H]3C[C@H]4CC[C@@H](C3)N4C)c2c1` [Example 17, endo-8-methyl-8-azabicyclo[3.2.1]-oct-3-yl 5-methylpyrazolo[1,5-a]pyridine-3-carboxylate] showed a pIC50 at 5-HT3 receptor of 7.59.

For `Cc1nn2c(C)cccc2c1C(=O)NC1CN2CCC1CC2` (stereo not drawn) [Example 19], the pIC50 at 5-HT3 receptor was 8.28.

Broadly, the pIC50 is the negative decadic logarithm of the IC50, by convention in mol/L.
